This note sets out measurements from patent US12077555B2, “STAT degraders and uses thereof” (Kymera Therapeutics, Inc., priority 2019, dated 2024).

For the assay, the target named is STAT3 (Homo sapiens, UniProt P40763). As to the kind of experiment: STAT3 HiBiT degradation assay in transfected A549 cells. The assay is classed as cell-based. Also noted: expressed in transfected cells; host or cells: A549. The note with it: A549, 24 h; read-out: STAT3 HiBiT A549 degradation 24 h: Average external-Abs DC50. In a few lines:
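Transfected A549 cells (~2000/well) plated 24 h, then treated 24 h at 37 °C, 5% CO2 with a 3-fold, 10-point compound dilution. HiBiT lytic luminescence read after 10 min at room temperature; remaining STAT3 normalized to negative and positive controls, four-parameter fit. DC50 binned A <0.01, B 0.01–0.1, C 0.1–1.0, D >1.0 µM.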
(With HiBiT, luminescence reflects the tagged protein that the partner subunit can reach.)

Where only a bound is given, the exact number is not on record here.

STAT3, sequence (P40763 whole entry): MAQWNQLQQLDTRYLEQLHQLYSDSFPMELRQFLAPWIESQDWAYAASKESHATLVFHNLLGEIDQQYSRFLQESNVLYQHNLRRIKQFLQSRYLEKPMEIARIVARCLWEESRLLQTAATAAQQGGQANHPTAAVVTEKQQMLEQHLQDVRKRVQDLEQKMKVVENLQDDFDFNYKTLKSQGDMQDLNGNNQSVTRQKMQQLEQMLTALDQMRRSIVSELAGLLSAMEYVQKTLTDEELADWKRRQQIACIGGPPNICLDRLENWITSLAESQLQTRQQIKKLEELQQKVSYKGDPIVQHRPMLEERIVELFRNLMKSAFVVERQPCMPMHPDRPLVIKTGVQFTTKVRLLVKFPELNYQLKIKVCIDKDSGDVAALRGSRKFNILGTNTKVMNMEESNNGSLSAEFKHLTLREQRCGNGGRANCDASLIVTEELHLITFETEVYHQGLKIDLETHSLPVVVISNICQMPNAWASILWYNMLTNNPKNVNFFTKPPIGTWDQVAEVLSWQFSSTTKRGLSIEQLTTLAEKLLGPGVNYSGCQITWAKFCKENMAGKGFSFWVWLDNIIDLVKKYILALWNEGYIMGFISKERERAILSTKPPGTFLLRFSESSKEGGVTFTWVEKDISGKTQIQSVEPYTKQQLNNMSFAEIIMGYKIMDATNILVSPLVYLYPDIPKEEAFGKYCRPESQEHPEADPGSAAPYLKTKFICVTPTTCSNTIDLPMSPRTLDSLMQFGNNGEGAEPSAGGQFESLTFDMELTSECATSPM

Take `Cc1ncsc1-c1ccc([C@H](C)NC(=O)[C@@H]2C[C@@H](O)CN2C(=O)[C@@H](NC(=O)CCCCCc2cc(Cl)cc(NC(=O)[C@H](CCC(N)=O)NC(=O)[C@@H]3Cc4cccc5c4N3C(=O)[C@@H](NC(=O)c3cc4cc(C(=O)P(=O)(O)O)ccc4[nH]3)CC5)c2)C(C)(C)C)cc1` [Compound I-257, 2-[[(2S,11S)-2-[[(1S)-3-carbamoyl-1-[[3-chloro-5-(5[[(2S)-1-[(2S,4R)-4-hydroxy-2-[[(1S)-1-[4-(4-methyl-1,3-thiazol-5-yl)phenyl]ethyl]carbamoyl]pyrrolidin-1-yl]-3,3-dimethyl-1-oxobutan-2-yl]carbamoyl]pentyl)phenyl]carbamoyl]propyl]carbamoyl]-12-oxo-1-azatricyclo[6.4.1.0^[4,13]]trideca-4(13),5,7-trien-11-yl]carbamoyl]-1H-indole-5-carbonylphosphonic acid]: the DC50 (as a rule, the concentration giving 50% degradation) was 10 to 100 nM.

On to `CC(=O)N1CC[C@H]2CC[C@@H](C(=O)N[C@@H](CCC(=O)O)COc3cc(F)cc(CCCC(=O)N[C@H](C(=O)N4C[C@H](O)C[C@H]4C(=O)N[C@@H](C)c4ccc(-c5scnc5C)cc4)C(C)(C)C)c3Cl)N2C(=O)[C@@H](NC(=O)c2cc3cc(C(=O)P(=O)(O)O)ccc3[nH]2)C1` [Compound I-289], for which the DC50 is less than 10 nM.

Consider `Cc1ncsc1-c1ccc(CNC(=O)[C@@H]2C[C@@H](O)CN2C(=O)[C@@H](NC(=O)CCCCc2ccc(CN(C)C[C@H](CCC(N)=O)NC(=O)[C@@H]3Cc4cccc5c4N3C(=O)[C@@H](NC(=O)c3cc4cc(C(=O)P(=O)(O)O)ccc4[nH]3)CC5)cc2)C(C)(C)C)cc1` [Compound I-179, 2-[[(2S,11S)-2-[[(2S)-4-carbamoyl-1-([[4-(4-[[(2S)-1-[(2S,4R)-4-hydroxy-2-([[4-(4-methyl-1,3-thiazol-5-yl)phenyl]methyl]carbamoyl)pyrrolidin-1-yl]-3,3-dimethyl-1-oxobutan-2-yl]carbamoyl]butyl)phenyl]methyl](methyl)amino)butan-2-yl]carbamoyl]-12-oxo-1-azatricyclo[6.4.1.0^[4,13]]trideca-4(13),5,7-trien-11-yl]carbamoyl]-1H-indole-5-carbonylphosphonic acid], for which the DC50 was 100 to 1000 nM.

On to `Cc1ncsc1-c1ccc([C@H](C)NC(=O)[C@@H]2C[C@@H](O)CN2C(=O)[C@@H](NC(=O)CCCCCc2cc(Cl)cc(OC[C@H](CCC(N)=O)NC(=O)[C@@H]3Cc4cccc5c4N3C(=O)[C@@H](NC(=O)c3cc4cc(C(=O)P(=O)(O)O)ccc4[nH]3)CC5)c2F)C(C)(C)C)cc1` [Compound I-244, 2-[[(2S,11S)-2-[[(2S)-4-carbamoyl-1-[5-chloro-2-fluoro-3-(5-[[(2S)-1-[(2S,4R)-4-hydroxy-2-[[(1S)-1-[4-(4-methyl-1,3-thiazol-5-yl)phenyl]ethyl]carbamoyl]pyrrolidin-1-yl]-3,3-dimethyl-1-oxobutan-2-yl]carbamoyl]pentyl)phenoxy]butan-2-yl]carbamoyl]-12-oxo-1-azatricyclo[6.4.1.0^[4,13]]trideca-4(13),5,7-trien-11-yl]carbamoyl]-1H-indole-5-carbonylphosphonic acid], for which the DC50 is less than 10 nM.

With `Cc1ncsc1-c1ccc([C@H](C)NC(=O)[C@@H]2C[C@@H](O)CN2C(=O)[C@@H](NC(=O)CCCCCc2cc(F)cc(NC(=O)[C@H](CCC(N)=O)NC(=O)[C@@H]3Cc4cccc5c4N3C(=O)[C@@H](NC(=O)c3cc4cc(C(=O)P(=O)(O)O)ccc4[nH]3)CC5)c2)C(C)(C)C)cc1` [Compound I-264, 63 2-[[(2S,11S)-2-[[(1S)-3-carbamoyl-1-[[3-fluoro-5-(5-[[(2S)-1-[(2S,4R)-4-hydroxy-2-[[(1S)-1-[4-(4-methyl-1,3-thiazol-5-yl)phenyl]ethyl]carbamoyl]pyrrolidin-1-yl]-3,3-dimethyl-1-1-oxobutan-2-yl]carbamoyl]pentyl)phenyl]carbamoyl]propyl]carbamoyl]-12-oxo-1-azatricyclo[6.4.1.0^[4,13]]trideca-4(13),5,7-trien-11-yl]carbamoyl]-1H-indole-5-carbonylphosphonic acid 7], the DC50 lay in the range of 10 to 100 nM.

On to `Cc1ncsc1-c1ccc([C@H](C)NC(=O)[C@@H]2C[C@@H](O)CN2C(=O)[C@@H](NC(=O)CCCCc2cccc(OC[C@H](CCC(N)=O)NC(=O)[C@@H]3Cc4cccc5c4N3C(=O)[C@@H](NC(=O)c3cc4cc(C(=O)P(=O)(O)O)ccc4[nH]3)CC5)c2)C(C)(C)C)cc1` [Compound I-211, diammonium 2-[[(2S,11S)-2-[[(2S)-4-carbamoyl-1-[3-(4-[[(2S)-1-[(2S,4R)-4-hydroxy-2-[[(1S)-1-[4-(4-methyl-1,3-thiazol-5-yl)phenyl]ethyl]carbamoyl]pyrrolidin-1-yl]-3,3-dimethyl-1-oxobutan-2-yl]carbamoyl]butyl)phenoxy]butan-2-yl]carbamoyl]-12-oxo-1-azatricyclo[6.4.1.0^[4,13]]trideca-4(13),5,7-trien-11-yl]carbamoyl]-1H-indole-5-carbonylphosphonate], for which the DC50 was 10 to 100 nM.

`Cn1c(=O)n(C2CCC(=O)NC2=O)c2cccc(CCCCCCC(=O)N3CC[C@H]4CC[C@@H](C(=O)N[C@@H](CCC(N)=O)C(=O)NC(c5ccccc5)c5ccccc5)N4C(=O)[C@@H](NC(=O)c4cc5cc(C(=O)P(=O)(O)O)ccc5[nH]4)C3)c21` (stereo partly drawn) [Compound I-124, 2-[[(5S,8S,10aR)-8-[[(1S)-3-carbamoyl-1-(diphenylmethylcarbamoyl)propyl]carbamoyl]-3-[7-[1-(2,6-dioxopiperidin-3-yl)-3-methyl-2-oxo-1,3-benzodiazol-4-yl]heptanoyl]-6-oxo-octahydropyrrolo[1,2-a][1,5]diazocin-5-yl]carbamoyl]-1H-indole-5-carbonylphosphonic acid]: the DC50 is greater than 1000 nM.

Take `Cc1ncsc1-c1ccc([C@H](C)NC(=O)[C@@H]2C[C@@H](O)CN2C(=O)[C@@H](NC(=O)CCCCCc2ccc([C@H](CCC(N)=O)NC(=O)[C@@H]3Cc4cccc5c4N3C(=O)[C@@H](NC(=O)c3cc4cc(C(=O)P(=O)(O)O)ccc4[nH]3)CC5)nc2)C(C)(C)C)cc1` [Compound I-238]: the DC50 fell in the range of 100 to 1000 nM.

In the case of `C/C(=C\C(=O)N[C@H]1CCc2cccc3c2N(C1=O)[C@H](C(=O)N[C@@H](CCC(N)=O)[C@@H](C)OCc1ccc(CCCCC(=O)N[C@H](C(=O)N2C[C@@H](O)C[C@H]2C(=O)NCc2ccc(-c4scnc4C)cc2)C(C)(C)C)cc1)C3)c1ccc(C(F)(F)P(=O)(O)O)cc1` [Compound I-119], the DC50 is greater than 1000 nM.

Take `Cc1ncsc1-c1ccc(CNC(=O)[C@@H]2C[C@@H](O)CN2C(=O)[C@@H](NC(=O)NCCCc2ccc(CO[C@H](C)[C@H](CCC(N)=O)NC(=O)[C@@H]3Cc4cccc5c4N3C(=O)[C@@H](NC(=O)c3cc4cc(C(=O)P(=O)(O)O)ccc4[nH]3)CC5)cc2)C(C)(C)C)cc1` [Compound I-151, 2-[[(2S,11S)-2-[[(3S,4R)-1-carbamoyl-4-([4-[3-([[(2S)-1-[(2S,4R)-4-hydroxy-2-([[4-(4-methyl-1,3-thiazol-5-yl)phenyl]methyl]carbamoyl)pyrrolidin-1-yl]-3,3-dimethyl-1-oxobutan-2-yl]carbamoyl]amino)propyl]phenyl]methoxy)pentan-3-yl]carbamoyl]-12-oxo-1-azatricyclo[6.4.1.0^[4,13]]trideca-4(13),5,7-trien-11-yl]carbamoyl]-1H-indole-5-carbonylphosphonic acid]: the DC50 fell in the range of 100 to 1000 nM.
